Test results as given in PubChem BioAssay (NCI).
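Growth conditions: 96-well plates. Treatment: test compound, 48 hours, 5 concentrations. Analysis: linear interpolation between bracketing concentrations; unreached endpoints set to highest concentration. At the GI50, growth is halved. TGI denotes the concentration required for complete inhibition of growth.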

What was measured:
Test in all cases: inhibition of tumour cell growth, NCI panel, 48 h
786-0 renal = test system: 786-0 renal
A498 renal = test system: A498 renal
A549 NSCLC = test system: A549 NSCLC
ACHN renal = test system: ACHN renal
BT-549 breast = test system: BT-549 breast
CAKI-1 renal = test system: CAKI-1 renal
CCRF-CEM leukemia = test system: CCRF-CEM leukemia
COLO 205 colon = test system: COLO 205 colon
DU-145 prostate = test system: DU-145 prostate
EKVX NSCLC = test system: EKVX NSCLC
HCC-2998 colon = test system: HCC-2998 colon
HCT-116 colon = test system: HCT-116 colon
HCT-15 colon = test system: HCT-15 colon
HL-60(TB) leukemia = test system: HL-60(TB) leukemia
HOP-62 NSCLC = test system: HOP-62 NSCLC
HOP-92 NSCLC = test system: HOP-92 NSCLC
HS 578T breast = test system: HS 578T breast
HT29 colon = test system: HT29 colon
IGROV1 ovarian = test system: IGROV1 ovarian
K-562 leukemia = test system: K-562 leukemia
KM12 colon = test system: KM12 colon
LOX IMVI melanoma = test system: LOX IMVI melanoma
M14 melanoma = test system: M14 melanoma
MALME-3M melanoma = test system: MALME-3M melanoma
MCF7 breast = test system: MCF7 breast
MDA-MB-231 breast = test system: MDA-MB-231 breast
MDA-MB-435 = test system: MDA-MB-435
MOLT-4 leukemia = test system: MOLT-4 leukemia
NCI-H226 lung = test system: NCI-H226 lung
NCI-H23 lung = test system: NCI-H23 lung
NCI-H460 lung = test system: NCI-H460 lung
NCI-H522 lung = test system: NCI-H522 lung
OVCAR-3 ovarian = test system: OVCAR-3 ovarian
OVCAR-4 ovarian = test system: OVCAR-4 ovarian
OVCAR-5 ovarian = test system: OVCAR-5 ovarian
OVCAR-8 ovarian = test system: OVCAR-8 ovarian
PC-3 prostate = test system: PC-3 prostate
RPMI-8226 leukemia = test system: RPMI-8226 leukemia
RXF 393 renal = test system: RXF 393 renal
SF-268 CNS = test system: SF-268 CNS
SF-295 CNS = test system: SF-295 CNS
SF-539 CNS = test system: SF-539 CNS
SK-MEL-2 melanoma = test system: SK-MEL-2 melanoma
SK-MEL-28 melanoma = test system: SK-MEL-28 melanoma
SK-MEL-5 melanoma = test system: SK-MEL-5 melanoma
SK-OV-3 ovarian = test system: SK-OV-3 ovarian
SN12C renal = test system: SN12C renal
SNB-19 CNS = test system: SNB-19 CNS
SNB-75 CNS = test system: SNB-75 CNS
SR leukemia = test system: SR leukemia
SW-620 colon = test system: SW-620 colon
T-47D breast = test system: T-47D breast
TK-10 renal = test system: TK-10 renal
U251 CNS = test system: U251 CNS
UACC-257 melanoma = test system: UACC-257 melanoma
UACC-62 melanoma = test system: UACC-62 melanoma
UO-31 renal = test system: UO-31 renal

## O=c1ccc(N=Nc2ccccc2)ccc1Cl
786-0 renal
  GI50: 3.83 µM
  TGI: 13.6 µM
A498 renal
  GI50: > 100 µM
  TGI: > 100 µM
A549 NSCLC
  GI50: 17 µM
  TGI: 38.7 µM
ACHN renal
  GI50: 3.11 µM
  TGI: 10.2 µM
BT-549 breast
  GI50: 3.22 µM
  TGI: 9.77 µM
CAKI-1 renal
  GI50: 13 µM
  TGI: 25.8 µM
CCRF-CEM leukemia
  GI50: 1.39 µM
  TGI: 26.7 µM
COLO 205 colon
  GI50: 5.07 µM
  TGI: 18.4 µM
DU-145 prostate
  GI50: 15.5 µM
  TGI: 29 µM
EKVX NSCLC
  GI50: 11.5 µM
  TGI: 29.1 µM
HCC-2998 colon
  GI50: 12.2 µM
  TGI: 26.4 µM
HCT-116 colon
  GI50: 2.61 µM
  TGI: 9.49 µM
HCT-15 colon
  GI50: 2.53 µM
  TGI: 8.07 µM
HL-60(TB) leukemia
  GI50: 18.1 µM
  TGI: 87.1 µM
HOP-62 NSCLC
  GI50: 31.3 µM
  TGI: > 100 µM
HOP-92 NSCLC
  GI50: 13.9 µM
  TGI: 28.1 µM
HS 578T breast
  GI50: 21.4 µM
  TGI: 62.7 µM
HT29 colon
  GI50: 5.62 µM
  TGI: 19.2 µM
IGROV1 ovarian
  GI50: 13.8 µM
  TGI: 27.4 µM
K-562 leukemia
  GI50: 1 µM
  TGI: > 100 µM
KM12 colon
  GI50: 12.7 µM
  TGI: 32.4 µM
LOX IMVI melanoma
  GI50: 2.24 µM
  TGI: 6.74 µM
M14 melanoma
  GI50: 2.63 µM
  TGI: 12.7 µM
MALME-3M melanoma
  GI50: 3.57 µM
  TGI: 12.4 µM
MCF7 breast
  GI50: 3.16 µM
  TGI: 18 µM
MDA-MB-231 breast
  GI50: 9.01 µM
  TGI: 21.2 µM
MDA-MB-435
  GI50: 14.8 µM
  TGI: 29.6 µM
MOLT-4 leukemia
  GI50: 0.749 µM
  TGI: > 100 µM
NCI-H226 lung
  GI50: 19.6 µM
  TGI: 66.1 µM
NCI-H23 lung
  GI50: 6.25 µM
  TGI: 21.9 µM
NCI-H460 lung
  GI50: 15.4 µM
  TGI: 37.7 µM
NCI-H522 lung
  GI50: 1.8 µM
  TGI: 3.67 µM
OVCAR-3 ovarian
  GI50: 4.39 µM
  TGI: 15.6 µM
OVCAR-4 ovarian
  GI50: 12.8 µM
  TGI: 25.9 µM
OVCAR-5 ovarian
  GI50: 15.4 µM
  TGI: 29.3 µM
OVCAR-8 ovarian
  GI50: 3.49 µM
  TGI: 13.1 µM
PC-3 prostate
  GI50: 5.16 µM
  TGI: 18.7 µM
RPMI-8226 leukemia
  GI50: 3.76 µM
  TGI: 27.4 µM
RXF 393 renal
  GI50: 8.19 µM
  TGI: 22.1 µM
SF-268 CNS
  GI50: 18.8 µM
  TGI: 43.5 µM
SF-295 CNS
  GI50: 18.1 µM
  TGI: 46.6 µM
SF-539 CNS
  GI50: 5.9 µM
  TGI: 18.3 µM
SK-MEL-2 melanoma
  GI50: 13.9 µM
  TGI: 29.8 µM
SK-MEL-28 melanoma
  GI50: 14.5 µM
  TGI: 27.9 µM
SK-MEL-5 melanoma
  GI50: 15.7 µM
  TGI: 31.7 µM
SK-OV-3 ovarian
  GI50: 48 µM
  TGI: > 100 µM
SN12C renal
  GI50: 12.9 µM
  TGI: 25.7 µM
SNB-19 CNS
  GI50: 26.2 µM
  TGI: 91.4 µM
SNB-75 CNS
  GI50: 15.9 µM
  TGI: 92.3 µM
SR leukemia
  GI50: 1.73 µM
  TGI: > 100 µM
SW-620 colon
  GI50: 3.14 µM
  TGI: 12.8 µM
T-47D breast
  GI50: 3.14 µM
  TGI: 26.4 µM
TK-10 renal
  GI50: 13.7 µM
  TGI: 26.6 µM
U251 CNS
  GI50: 2.78 µM
  TGI: 9.29 µM
UACC-257 melanoma
  GI50: 11.5 µM
  TGI: 24 µM
UACC-62 melanoma
  GI50: 12.7 µM
  TGI: 25.6 µM
UO-31 renal
  GI50: 7.39 µM
  TGI: 20.7 µM
